We go through 6 compounds from paper PMC3629230, “Permeability Enhancers Dramatically Increase Zanamivir Absolute Bioavailability in Rats: Implications for an Orally Bioavailable Influenza Treatment” (PLoS ONE, 2013).

For data set [1] the following is noted: cited from earlier work.
In data set [2] the test system is neuraminidase. Conditions: more potent; cited from earlier work.
Data set [3] has as its system Caco-2 cell monolayers. Briefly: Unidirectional (A-to-B) permeability of zanamivir across Caco-2 cell monolayers with and without excipients. Type of data set: in vitro ADME. As to conditions: initial screening, glycerol and Capmul MCM L8, results not shown. As for the experimental part: Caco-2 cells were obtained from American Type Culture Collection (Rockville, MD). Stock cultures were maintained in flasks with DMEM medium supplemented with 10% FBS, 1% non-essential amino acids, 1 mmol/L sodium pyruvate, 100 IU/mL penicillin, and 100 µg/mL streptomycin in a humidified incubator (37°C, 5% CO2). Cells were harvested by trypsinization and seeded at 60,000 cells/cm^2 onto Costar Transwell® 12-well dual-chamber plates with collagen-coated, microporous polycarbonate membranes (1.13 cm^2 insert area, 0.4 µm pore size; Corning Life Sciences, Acton, MA) for permeability studies. The culture medium was changed three times per week.
Caco-2 cell monolayers that had grown for at least 20 days were subjected to batch quality control testing in which permeation rates were measured for atenolol, digoxin, estrone-3-sulfate, lucifer yellow (LY), and propranolol. In addition, the transepithelial electrical resistance (TEER) across each experimental monolayer was tested prior to an experiment.
Unidirectional (A-to-B) permeability of zanamivir was determined at 15 µg/mL in the absence and presence of varying concentrations of excipients in Caco-2 cell monolayers. The assay buffer was Hanks' balanced salt solution (HBSS) supplemented with 10 mM 4-(2-hydroxyethyl)-1-piperazineethanesulfonic acid (HEPES) and 15 mM D-glucose (HBSSg), pH 7.4. The dosing solutions on the apical side (0.5 mL) contained either zanamivir and excipients at each concentration being tested or zanamivir only (n = 4), while the receiver buffer in the bottom well (1.5 mL) was always excipient-free. The Caco-2 cell monolayers were incubated for 120 min in a humidified incubator (37°C, 5% CO2) after dosing in the apical chambers. Aliquots (200 µL each) of receiver buffer were sampled at 60 min, 90 min, and 120 min after dosing, with replacement by the same volume of blank buffer (at 60 min and 90 min). Donors were sampled at 0 and 120 min.
Experimental samples were identically treated.

SMILES strings stand for the structures. Read-outs that look alike come from different tables or passages of the source. A value given as a limit tells only on which side of the number the result lay.

`CCOC(=O)C1=CC(OC(CC)CC)C(NC(C)=O)C(NC(=N)N)C1` (stereo not shown) [GL4116 ethyl ester]: the Oral bioavailability entry in data set [1] (in vivo, po) was “under 5%”.
As for `CCC(CC)OC1C=C(C(=O)O)CC(NC(=N)N)C1NC(C)=O` (stereo not shown) [GS4116 carboxylate], the “Inhibitor potency relative to oseltamivir carboxylate” value in data set [2] was 10 fold. The Oral bioavailability entry in data set [1] (in vivo, po) is given as “under 5%”.
Regarding `CO[C@@H]([C@@H]1OC(C(=O)O)=C[C@H](NC(=N)N)[C@H]1NC(C)=O)[C@H](O)CO` [laninamivir], in data set [1], the Oral bioavailability result was “under 2%”.
Turning to `CCC(CC)O[C@@H]1C=C(C(=O)O)C[C@H](N)[C@H]1NC(C)=O` [oseltamivir carboxylate], the Oral bioavailability in data set [1] (in vivo, po) is reported as 2%. The Absolute bioavailability entry in data set [1] (in vivo) was “under 5%”.
As to `CCOC(=O)C1=C[C@@H](OC(CC)CC)[C@H](NC(C)=O)[C@@H](N)C1` [oseltamivir], the Oral bioavailability entry in data set [1] (in vivo, po) is “at least 35%”. Moreover, the Absolute bioavailability in data set [1] (in vivo) is on record as not below 35%.
As to `CCC(CC)[C@H](NC(C)=O)[C@@H]1[C@H](O)[C@@H](C(=O)O)C[C@H]1N=C(N)N` [peramivir], the Oral bioavailability result in data set [1] is reported as “under 2%”. Besides, the “Drug transport across Caco-2 cell monolayers with enhancers” value in data set [3] is on record as “substantially increased drug transport”.
